What was measured:
Assay type in all cases: physicochemical
[1] = Powderizing test by admixing deionized water; settings: 25° C.
Procedure: (§1) The usefulness of the crystal was judged by the amount of deionized water added to the limit of keeping the powder form. The form of the powder was evaluated by the following four phases: (1) powder; (2) lump (it keeps a powder form while it comprises lumps); (3) cake; and (4) paste. As a control, the anhydrous crystalline α-maltose used in Example 2 was treated by the same procedure. The test was carried out in a room where the temperature was kept at 25° C. The results of the test and the form of each sample after admixing with 1.25 ml of deionized water are shown in Table 7 and FIG. 15, respectively.

[2] = Powderizing test by admixing dehydrated ethanol
Procedure: as §1, with “respectively. […] The results of the test and the form of each sample after admixing with 6 ml of dehydrated ethanol are shown in Table 8 and FIG. 16, respectively.” for “respectively.”

[3] = Hygroscopicity test (moisture content under controlled relative humidity); settings: 27° C.
Procedure: Moisture contents of the samples at respective periods were measured based on the change of weight from the start of the test. The moisture contents of the samples at the start of the test were measured by Karl Fischer's method.

[4] = Specific surface area by nitrogen adsorption isotherms (BET); settings: BET method, listed as anhydrous crystalline β-maltose converted by the ethanol treatment
Procedure: About 3 g of the anhydrous crystalline β-maltose, obtained in Example 1, was dried in the apparatus under a reduced pressure at about 40° C. for about 15 hours as a pretreatment, and then used for the measurement of specific surface area by the nitrogen adsorption isotherms. The result was analyzed by conventional BET (Brunnauer, Emmet, and Teller) method.

SMILES: OC[C@H]1O[C@H](O[C@H]2[C@H](O)[C@@H](O)[C@H](O)O[C@@H]2CO)[C@H](O)[C@@H](O)[C@@H]1O [anhydrous crystalline β-maltose]
- Form of the powder after admixing deionized water ([1]; 10 g crystal + 0.25 ml water (moisture content 2.4%, w/w)): Powder form
- Form of the powder after admixing deionized water ([1]; 10 g crystal + 0.50 ml water (moisture content 4.8%, w/w)): Powder form
- Form of the powder after admixing deionized water ([1]; 10 g crystal + 0.75 ml water (moisture content 7.0%, w/w)): Powder form
- Form of the powder after admixing deionized water ([1]; 10 g crystal + 1.00 ml water (moisture content 9.1%, w/w)): Powder form
- Form of the powder after admixing deionized water ([1]; 10 g crystal + 1.25 ml water (moisture content 11.1%, w/w)): Powder form
- Form of the powder after admixing deionized water ([1]; 10 g crystal + 1.50 ml water (moisture content 13.0%, w/w)): Lump form
- Form of the powder after admixing deionized water ([1]; 10 g crystal + 1.75 ml water (moisture content 14.9%, w/w)): Lump form
- Form of the powder after admixing deionized water ([1]; 10 g crystal + 2.00 ml water (moisture content 16.7%, w/w)): Lump form
- Form of the powder after admixing dehydrated ethanol ([2]; 10 g crystal + 3.0 ml ethanol (24.3 v/w %)): Powder form
- Form of the powder after admixing dehydrated ethanol ([2]; 10 g crystal + 3.5 ml ethanol (27.5 v/w %)): Powder form
- Form of the powder after admixing dehydrated ethanol ([2]; 10 g crystal + 4.0 ml ethanol (30.5 v/w %)): Powder form
- Form of the powder after admixing dehydrated ethanol ([2]; 10 g crystal + 4.5 ml ethanol (33.3 v/w %)): Powder form
- Form of the powder after admixing dehydrated ethanol ([2]; 10 g crystal + 5.0 ml ethanol (36.0 v/w %)): Powder form
- Form of the powder after admixing dehydrated ethanol ([2]; 10 g crystal + 5.5 ml ethanol (38.5 v/w %)): Powder form
- Form of the powder after admixing dehydrated ethanol ([2]; 10 g crystal + 6.0 ml ethanol (40.9 v/w %)): Powder form
- Form of the powder after admixing dehydrated ethanol ([2]; 10 g crystal + 7.0 ml ethanol (45.3 v/w %)): Powder form
- Form of the powder after admixing dehydrated ethanol ([2]; 10 g crystal + 8.0 ml ethanol (49.3 v/w %)): Powder form
- Form of the powder after admixing dehydrated ethanol ([2]; 10 g crystal + 9.0 ml ethanol (52.9 v/w %)): Lump form
- Form of the powder after admixing dehydrated ethanol ([2]; 10 g crystal + 10.0 ml ethanol (56.2 v/w %)): Lump form
- Form of the powder after admixing dehydrated ethanol ([2]; 10 g crystal + 11.0 ml ethanol (59.2 v/w %)): Cake form
- Moisture content of samples ([3]; RH 47% (lithium nitrate), 0 hour (start, Karl Fischer), listed as AC* β-Mal (Present invention)): 0.32 %, w/w
- Moisture content of samples ([3]; RH 47% (lithium nitrate), 2 hours, listed as AC* β-Mal (Present invention)): 0.30 %, w/w
- Moisture content of samples ([3]; RH 47% (lithium nitrate), 4 hours, listed as AC* β-Mal (Present invention)): 0.28 %, w/w
- Moisture content of samples ([3]; RH 47% (lithium nitrate), 24 hours, listed as AC* β-Mal (Present invention)): 0.27 %, w/w
- Moisture content of samples ([3]; RH 47% (lithium nitrate), 96 hours, listed as AC* β-Mal (Present invention)): 0.34 %, w/w
- Moisture content of samples ([3]; RH 47% (lithium nitrate), 192 hours, listed as AC* β-Mal (Present invention)): 0.28 %, w/w
- Moisture content of samples ([3]; RH 58% (sodium bromide), 0 hour (start, Karl Fischer), listed as AC β-Mal (Present invention)): 0.32 %, w/w
- Moisture content of samples ([3]; RH 58% (sodium bromide), 2 hours, listed as AC β-Mal (Present invention)): 0.32 %, w/w
- Moisture content of samples ([3]; RH 58% (sodium bromide), 4 hours, listed as AC β-Mal (Present invention)): 0.33 %, w/w
- Moisture content of samples ([3]; RH 58% (sodium bromide), 6 hours, listed as AC β-Mal (Present invention)): 0.36 %, w/w
- Moisture content of samples ([3]; RH 58% (sodium bromide), 8 hours, listed as AC β-Mal (Present invention)): 0.35 %, w/w
- Moisture content of samples ([3]; RH 58% (sodium bromide), 24 hours, listed as AC β-Mal (Present invention)): 0.35 %, w/w
- Moisture content of samples ([3]; RH 58% (sodium bromide), 96 hours, listed as AC β-Mal (Present invention)): 1.47 %, w/w
- Moisture content of samples ([3]; RH 58% (sodium bromide), 192 hours, listed as AC β-Mal (Present invention)): 4.16 %, w/w
- Moisture content of samples ([3]; RH 75% (sodium chloride), 0 hour (start, Karl Fischer), listed as AC β-Mal (Present invention)): 0.32 %, w/w
- Moisture content of samples ([3]; RH 75% (sodium chloride), 2 hours, listed as AC β-Mal (Present invention)): 0.66 %, w/w
- Moisture content of samples ([3]; RH 75% (sodium chloride), 4 hours, listed as AC β-Mal (Present invention)): 2.37 %, w/w
- Moisture content of samples ([3]; RH 75% (sodium chloride), 6 hours, listed as AC β-Mal (Present invention)): 3.93 %, w/w
- Moisture content of samples ([3]; RH 75% (sodium chloride), 8 hours, listed as AC β-Mal (Present invention)): 4.51 %, w/w
- Moisture content of samples ([3]; RH 75% (sodium chloride), 24 hours, listed as AC β-Mal (Present invention)): 4.54 %, w/w
- Moisture content of samples ([3]; RH 75% (sodium chloride), 96 hours, listed as AC β-Mal (Present invention)): 4.57 %, w/w
- Moisture content of samples ([3]; RH 75% (sodium chloride), 192 hours, listed as AC β-Mal (Present invention)): 5.19 %, w/w
- Moisture content of samples ([3]; RH 90% (barium chloride), 0 hour (start, Karl Fischer), listed as AC β-Mal (Present invention)): 0.32 %, w/w
- Moisture content of samples ([3]; RH 90% (barium chloride), 2 hours, listed as AC β-Mal (Present invention)): 1.72 %, w/w
- Moisture content of samples ([3]; RH 90% (barium chloride), 4 hours, listed as AC β-Mal (Present invention)): 4.53 %, w/w
- Moisture content of samples ([3]; RH 90% (barium chloride), 6 hours, listed as AC β-Mal (Present invention)): 4.79 %, w/w
- Moisture content of samples ([3]; RH 90% (barium chloride), 8 hours, listed as AC β-Mal (Present invention)): 4.58 %, w/w
- Moisture content of samples ([3]; RH 90% (barium chloride), 24 hours, listed as AC β-Mal (Present invention)): 4.66 %, w/w
- Moisture content of samples ([3]; RH 90% (barium chloride), 96 hours, listed as AC β-Mal (Present invention)): 4.82 %, w/w
- Moisture content of samples ([3]; RH 90% (barium chloride), 192 hours, listed as AC β-Mal (Present invention)): 5.38 %, w/w
- Specific surface area [4]: 3.39 m^2/g

Source: patent US8168779B2, “Anhydrous crystalline β-maltose, its preparation and uses” (priority 2006, dated 2012)
